#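 How tested: cells in 96-well plates exposed to compound for 48 hours at five concentrations. TGI marks complete inhibition of growth.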
# What was measured:
# Test in all cases: NCI tumour cell line growth inhibition, 48 h
# [1] = tested on: SW-620 colon
# [2] = tested on: SK-OV-3 ovarian
# [3] = tested on: OVCAR-3 ovarian
# [4] = tested on: A498 renal
# [5] = tested on: SK-MEL-2 melanoma
# [6] = tested on: P388 leukemia
# [7] = tested on: SNB-19 CNS
# [8] = tested on: NCI/ADR-RES ovarian
# [9] = tested on: MOLT-4 leukemia
# [10] = tested on: NCI-H23 lung
# [11] = tested on: HCT-116 colon
# [12] = tested on: SN12K1 renal
# [13] = tested on: P388/ADR leukemia
# [14] = tested on: HT29 colon
# [15] = tested on: COLO 205 colon
# [16] = tested on: HOP-18 NSCLC
# [17] = tested on: SNB-78 CNS
# [18] = tested on: SF-539 CNS
# [19] = tested on: HOP-92 NSCLC
# [20] = tested on: RXF 393 renal
# [21] = tested on: UACC-62 melanoma
# [22] = tested on: U251 CNS
# [23] = tested on: KM20L2 colon
# [24] = tested on: UACC-257 melanoma
# [25] = tested on: LOX IMVI melanoma
# [26] = tested on: A549 NSCLC
# [27] = tested on: HCT-15 colon
# [28] = tested on: EKVX NSCLC
# [29] = tested on: M19-MEL melanoma
# [30] = tested on: SF-295 CNS
# [31] = tested on: HOP-62 NSCLC
# [32] = tested on: CCRF-CEM leukemia
# [33] = tested on: K-562 leukemia
# [34] = tested on: SK-MEL-28 melanoma
# [35] = tested on: UO-31 renal
# [36] = tested on: OVCAR-4 ovarian
# [37] = tested on: HCC-2998 colon
# [38] = tested on: MALME-3M melanoma
# [39] = tested on: OVCAR-5 ovarian
# [40] = tested on: OVCAR-8 ovarian
# [41] = tested on: SNB-75 CNS
# [42] = tested on: SF-268 CNS
# [43] = tested on: DLD-1 colon
# [44] = tested on: SN12C renal
# [45] = tested on: RPMI-8226 leukemia
# [46] = tested on: MCF7 breast
# [47] = tested on: HL-60(TB) leukemia
# [48] = tested on: NCI-H460 lung
# [49] = tested on: XF 498 CNS
# [50] = tested on: KM12 colon
# [51] = tested on: SK-MEL-5 melanoma
# [52] = tested on: DMS 273 small cell lung
# [53] = tested on: CAKI-1 renal
# [54] = tested on: NCI-H226 lung
# [55] = tested on: IGROV1 ovarian
# [56] = tested on: NCI-H522 lung
# [57] = tested on: DMS 114 small cell lung
# [58] = tested on: LXFL 529 NSCLC
# [59] = tested on: 786-0 renal
# [60] = tested on: ACHN renal
# [61] = tested on: M14 melanoma
# [62] = tested on: RXF-631 renal
# [63] = tested on: TK-10 renal
compound,measurement,setting,value
O=C(O)c1cn2c3c(cc(N4CCN(CCO)CC4)cc3c1=O)SCC2,TGI,[1],> 100 µM
same,TGI,[2],> 100 µM
same,TGI,[3],> 100 µM
same,TGI,[4],> 100 µM
same,TGI,[5],> 100 µM
same,TGI,[6],> 100 µM
same,TGI,[7],> 100 µM
same,TGI,[8],> 100 µM
same,TGI,[9],> 100 µM
same,TGI,[10],> 100 µM
same,TGI,[11],> 100 µM
same,TGI,[12],> 100 µM
same,TGI,[13],> 100 µM
same,TGI,[14],> 100 µM
same,TGI,[15],> 100 µM
same,TGI,[16],> 100 µM
same,TGI,[17],> 100 µM
same,TGI,[18],> 100 µM
same,TGI,[19],> 100 µM
same,TGI,[20],> 100 µM
same,TGI,[21],> 100 µM
same,TGI,[22],> 100 µM
same,TGI,[23],> 100 µM
same,TGI,[24],> 100 µM
same,TGI,[25],> 100 µM
same,TGI,[26],> 100 µM
same,TGI,[27],> 100 µM
same,TGI,[28],> 100 µM
same,TGI,[29],> 100 µM
same,TGI,[30],> 100 µM
same,TGI,[31],> 100 µM
same,TGI,[32],> 100 µM
same,TGI,[33],> 100 µM
same,TGI,[34],> 100 µM
same,TGI,[35],> 100 µM
same,TGI,[36],> 100 µM
same,TGI,[37],93.3 µM
same,TGI,[38],> 100 µM
same,TGI,[39],> 100 µM
same,TGI,[40],> 100 µM
same,TGI,[41],> 66.5 µM
same,TGI,[42],> 100 µM
same,TGI,[43],> 100 µM
same,TGI,[44],> 100 µM
same,TGI,[45],> 100 µM
same,TGI,[46],> 100 µM
same,TGI,[47],> 100 µM
same,TGI,[48],> 100 µM
same,TGI,[49],67.2 µM
same,TGI,[50],> 100 µM
same,TGI,[51],> 100 µM
same,TGI,[52],> 100 µM
same,TGI,[53],> 100 µM
same,TGI,[54],> 100 µM
same,TGI,[55],> 100 µM
same,TGI,[56],94.2 µM
same,TGI,[57],> 100 µM
O=C(Cc1nc2ccccc2s1)Nc1cccc(C(F)(F)F)c1,TGI,[58],27.3 µM
same,TGI,[1],43.2 µM
same,TGI,[2],44.3 µM
same,TGI,[3],31.8 µM
same,TGI,[4],22.3 µM
same,TGI,[5],33.8 µM
same,TGI,[7],32.3 µM
same,TGI,[59],27.2 µM
same,TGI,[9],25.8 µM
same,TGI,[10],30.2 µM
same,TGI,[14],33.9 µM
same,TGI,[15],30.7 µM
same,TGI,[16],33.5 µM
same,TGI,[18],33.4 µM
same,TGI,[20],32.3 µM
same,TGI,[21],25.4 µM
same,TGI,[23],41.6 µM
same,TGI,[24],28.7 µM
same,TGI,[25],26.2 µM
same,TGI,[26],45.4 µM
same,TGI,[27],30.3 µM
same,TGI,[28],38.9 µM
same,TGI,[29],25.6 µM
same,TGI,[30],30.7 µM
same,TGI,[31],32.7 µM
same,TGI,[32],4.79 µM
same,TGI,[33],29.8 µM
same,TGI,[34],28.8 µM
same,TGI,[35],27.6 µM
same,TGI,[60],28.2 µM
same,TGI,[36],30.3 µM
same,TGI,[37],29.4 µM
same,TGI,[61],31.2 µM
same,TGI,[38],30.8 µM
same,TGI,[39],32.5 µM
same,TGI,[40],38.1 µM
same,TGI,[41],26.8 µM
same,TGI,[42],29.7 µM
same,TGI,[43],29.9 µM
same,TGI,[44],29.7 µM
same,TGI,[45],28.7 µM
same,TGI,[47],17.8 µM
same,TGI,[62],26.8 µM
same,TGI,[48],41.4 µM
same,TGI,[49],28.4 µM
same,TGI,[50],30.5 µM
same,TGI,[51],32.2 µM
same,TGI,[52],42.9 µM
same,TGI,[53],31.6 µM
same,TGI,[54],44.7 µM
same,TGI,[55],25.9 µM
same,TGI,[56],28.4 µM
same,TGI,[57],36.3 µM
same,TGI,[63],36.1 µM
Cc1nc(=O)n2c(c1C(=O)Nc1ccc(Cl)cc1)NCC2,TGI,[4],> 100 µM
same,TGI,[6],> 31.6 µM
same,TGI,[19],> 100 µM
